Measured values published in the supplement of paper PMC11208160.

assay: recombinant UMI read abundance after kanamycin selection (control-corrected) (log10(CPM+1)); higher = more efficient recombination; extreme values may be limits of the assay; sequences stand for … in AGTGCAGAGAAAATCGGCCAGTTTTCTCTGCCTGCAGTCCGCATGCCGTGGGACCCCTTGGGTTCTAACCTGTTGCCTAGATTTATGCAGCGGACTGCCTTTCTCCCAAAGTGATAAACCGG…AGGTTGGTTTCACT; site = the 11-nt donor
Summary of the method: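 Values, expressed as log10(CPM+1), derive from recombinant UMI counts converted to CPM, averaged across replicates and scaled by control-derived factors. Plating was with IPTG (0.07 mM) plus kanamycin or unselected, two replicates each. The screen pooled donor and donor-binding-loop pairs for the IS621 bridge recombinase in Escherichia coli.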
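Also: IS621 bridge recombinase in Escherichia coli cells against a fixed T5 target plasmid.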

With “CCATAGCCATGGACCGGTTTTCCCGGTAATCCGTATTTGCC (site CCCTAGCCTGG)” as the sequence, how does the “recombinant UMI read abundance (log10)” value read?
The value was 0.

For “CCATAGCCATGGACCGGTTTTCCCGGTAATCCGTATTTGCC (site CCGTAGCCTGG)”, which “recombinant UMI read abundance (log10)” value is on record?
Its value is 0.

Which “recombinant UMI read abundance (log10)” value does the source give for “CCATAGCCATGGACCGGTTTTCCCGGTAATCCGTATTTGCC (site CCTTAGCCTGG)” here?
The value was 0.

Which “recombinant UMI read abundance (log10)” value does the source give for “CCATAGTCATGGACCGGTTTTCCCGGTAATCCGTATTTGAA (site CCATAGTCTTT)” here?
Its value is 1.86.

Which “recombinant UMI read abundance (log10)” value does the source give for “CCATATGCATGGACCGGTTTTCCCGGTAATCCGTATTTGCA (site CCATATGCTTG)” here?
The value was 0.198.

Which “recombinant UMI read abundance (log10)” value does the source give for “CCATCCTCATGGACCGGTTTTCCCGGTAATCCGTATTTGGT (site CCATCCTCTAC)” here?
Its value is 1.38.

With “CCATCTACATGGACCGGTTTTCCCGGTAATCCGTATTTGTG (site ACATCTACTCA)” as the sequence, how does the “recombinant UMI read abundance (log10)” value read?
The value was 0.0369.

For “CCATCTACATGGACCGGTTTTCCCGGTAATCCGTATTTGTG (site CCATCTACTCA)”, which “recombinant UMI read abundance (log10)” value is on record?
Its value is 0.0215.

Which “recombinant UMI read abundance (log10)” value does the source give for “CCATCTACATGGACCGGTTTTCCCGGTAATCCGTATTTGTG (site GCATCTACTCA)” here?
Its value is 0.00588.

For “CCATCTACATGGACCGGTTTTCCCGGTAATCCGTATTTGTG (site TCATCTACTCA)”, which “recombinant UMI read abundance (log10)” value is on record?
The value was 0.

With “CCATCTGCATGGACCGGTTTTCCCGGTAATCCGTATTTGAA (site CCATCTGCTTT)” as the sequence, how does the “recombinant UMI read abundance (log10)” value read?
The value was 1.91.

For “CCATGGGCATGGACCGGTTTTCCCGGTAATCCGTATTTGAG (site CCATGGGCTCT)”, which “recombinant UMI read abundance (log10)” value is on record?
The value was 0.633.

For “CCATGGTCATGGACCGGTTTTCCCGGTAATCCGTATTTGAA (site CCATGGTCTTT)”, which “recombinant UMI read abundance (log10)” value is on record?
The value was 0.724.

For “CCATGTGCATGGACCGGTTTTCCCGGTAATCCGTATTTGAA (site CCATGTGCTTT)”, which “recombinant UMI read abundance (log10)” value is on record?
Its value is 0.336.

Which “recombinant UMI read abundance (log10)” value does the source give for “CCCACCCCATGGACCGGTTTTCCCGGTAATCCGTATTTGGC (site CCCACCCCTGC)” here?
The value was 0.

Which “recombinant UMI read abundance (log10)” value does the source give for “CCCACTACATGGACCGGTTTTCCCGGTAATCCGTATTTGTT (site CCCACTACTAA)” here?
Its value is 0.141.

With “CCCAGTCCATGGACCGGTTTTCCCGGTAATCCGTATTTGCA (site CCCAGTCCTTG)” as the sequence, how does the “recombinant UMI read abundance (log10)” value read?
Its value is 0.

With “CCCAGTCCATGGACCGGTTTTCCCGGTAATCCGTATTTGCA (site CCCCGTCCTTG)” as the sequence, how does the “recombinant UMI read abundance (log10)” value read?
The value was 0.

For “CCCAGTCCATGGACCGGTTTTCCCGGTAATCCGTATTTGCA (site CCCGGTCCTTG)”, which “recombinant UMI read abundance (log10)” value is on record?
The value was 0.00873.

For “CCCAGTCCATGGACCGGTTTTCCCGGTAATCCGTATTTGCA (site CCCTGTCCTTG)”, which “recombinant UMI read abundance (log10)” value is on record?
Its value is 0.0169.

Which “recombinant UMI read abundance (log10)” value does the source give for “CCCATATCATGGACCGGTTTTCCCGGTAATCCGTATTTGAT (site CCCATATCTAT)” here?
The value was 0.

With “CCCATATCATGGACCGGTTTTCCCGGTAATCCGTATTTGTA (site CCCATATCTAA)” as the sequence, how does the “recombinant UMI read abundance (log10)” value read?
The value was 0.0053.

For “CCCATATCATGGACCGGTTTTCCCGGTAATCCGTATTTGTA (site CCCATATCTCA)”, which “recombinant UMI read abundance (log10)” value is on record?
Its value is 0.0171.

With “CCCATATCATGGACCGGTTTTCCCGGTAATCCGTATTTGTA (site CCCATATCTGA)” as the sequence, how does the “recombinant UMI read abundance (log10)” value read?
Its value is 0.

Which “recombinant UMI read abundance (log10)” value does the source give for “CCCATATCATGGACCGGTTTTCCCGGTAATCCGTATTTGTA (site CCCATATCTTA)” here?
The value was 0.903.

For “CCCATATCATGGACCGGTTTTCCCGGTAATCCGTATTTGTC (site ACCATATCTGA)”, which “recombinant UMI read abundance (log10)” value is on record?
Its value is 0.

With “CCCATATCATGGACCGGTTTTCCCGGTAATCCGTATTTGTC (site CACATATCTGA)” as the sequence, how does the “recombinant UMI read abundance (log10)” value read?
Its value is 0.

For “CCCATATCATGGACCGGTTTTCCCGGTAATCCGTATTTGTC (site CCAATATCTGA)”, which “recombinant UMI read abundance (log10)” value is on record?
The value was 0.

With “CCCATATCATGGACCGGTTTTCCCGGTAATCCGTATTTGTC (site CCCAAATCTGA)” as the sequence, how does the “recombinant UMI read abundance (log10)” value read?
Its value is 0.

Which “recombinant UMI read abundance (log10)” value does the source give for “CCCATATCATGGACCGGTTTTCCCGGTAATCCGTATTTGTC (site CCCACATCTGA)” here?
Its value is 0.

With “CCCATATCATGGACCGGTTTTCCCGGTAATCCGTATTTGTC (site CCCAGATCTGA)” as the sequence, how does the “recombinant UMI read abundance (log10)” value read?
Its value is 0.

Which “recombinant UMI read abundance (log10)” value does the source give for “CCCATATCATGGACCGGTTTTCCCGGTAATCCGTATTTGTC (site CCCATAACTGA)” here?
Its value is 0.

Which “recombinant UMI read abundance (log10)” value does the source give for “CCCATATCATGGACCGGTTTTCCCGGTAATCCGTATTTGTC (site CCCATACCTGA)” here?
Its value is 0.34.

For “CCCATATCATGGACCGGTTTTCCCGGTAATCCGTATTTGTC (site CCCATAGCTGA)”, which “recombinant UMI read abundance (log10)” value is on record?
Its value is 0.

With “CCCATATCATGGACCGGTTTTCCCGGTAATCCGTATTTGTC (site CCCATATCTAA)” as the sequence, how does the “recombinant UMI read abundance (log10)” value read?
Its value is 0.00469.

Which “recombinant UMI read abundance (log10)” value does the source give for “CCCATATCATGGACCGGTTTTCCCGGTAATCCGTATTTGTC (site CCCATATCTCA)” here?
The value was 0.

For “CCCATATCATGGACCGGTTTTCCCGGTAATCCGTATTTGTC (site CCCATATCTGA)”, which “recombinant UMI read abundance (log10)” value is on record?
Its value is 0.747.

Which “recombinant UMI read abundance (log10)” value does the source give for “CCCATATCATGGACCGGTTTTCCCGGTAATCCGTATTTGTC (site CCCATATCTGC)” here?
Its value is 0.

For “CCCATATCATGGACCGGTTTTCCCGGTAATCCGTATTTGTC (site CCCATATCTGG)”, which “recombinant UMI read abundance (log10)” value is on record?
The value was 0.

Which “recombinant UMI read abundance (log10)” value does the source give for “CCCATATCATGGACCGGTTTTCCCGGTAATCCGTATTTGTC (site CCCATATCTGT)” here?
Its value is 0.

With “CCCATATCATGGACCGGTTTTCCCGGTAATCCGTATTTGTC (site CCCATATCTTA)” as the sequence, how does the “recombinant UMI read abundance (log10)” value read?
The value was 0.

Which “recombinant UMI read abundance (log10)” value does the source give for “CCCATATCATGGACCGGTTTTCCCGGTAATCCGTATTTGTC (site CCCATCTCTGA)” here?
The value was 0.

Which “recombinant UMI read abundance (log10)” value does the source give for “CCCATATCATGGACCGGTTTTCCCGGTAATCCGTATTTGTC (site CCCATGTCTGA)” here?
Its value is 0.

For “CCCATATCATGGACCGGTTTTCCCGGTAATCCGTATTTGTC (site CCCATTTCTGA)”, which “recombinant UMI read abundance (log10)” value is on record?
The value was 0.731.

With “CCCATATCATGGACCGGTTTTCCCGGTAATCCGTATTTGTC (site CCCCTATCTGA)” as the sequence, how does the “recombinant UMI read abundance (log10)” value read?
The value was 0.

Which “recombinant UMI read abundance (log10)” value does the source give for “CCCATATCATGGACCGGTTTTCCCGGTAATCCGTATTTGTC (site CCCGTATCTGA)” here?
Its value is 0.

For “CCCATATCATGGACCGGTTTTCCCGGTAATCCGTATTTGTC (site CCCTTATCTGA)”, which “recombinant UMI read abundance (log10)” value is on record?
The value was 0.395.

For “CCCATATCATGGACCGGTTTTCCCGGTAATCCGTATTTGTC (site CCGATATCTGA)”, which “recombinant UMI read abundance (log10)” value is on record?
Its value is 0.

Which “recombinant UMI read abundance (log10)” value does the source give for “CCCATATCATGGACCGGTTTTCCCGGTAATCCGTATTTGTC (site CCTATATCTGA)” here?
The value was 0.

Which “recombinant UMI read abundance (log10)” value does the source give for “CCCATATCATGGACCGGTTTTCCCGGTAATCCGTATTTGTC (site CGCATATCTGA)” here?
Its value is 0.

With “CCCATATCATGGACCGGTTTTCCCGGTAATCCGTATTTGTC (site CTCATATCTGA)” as the sequence, how does the “recombinant UMI read abundance (log10)” value read?
The value was 0.

For “CCCATATCATGGACCGGTTTTCCCGGTAATCCGTATTTGTC (site GCCATATCTGA)”, which “recombinant UMI read abundance (log10)” value is on record?
The value was 0.

With “CCCATATCATGGACCGGTTTTCCCGGTAATCCGTATTTGTC (site TCCATATCTGA)” as the sequence, how does the “recombinant UMI read abundance (log10)” value read?
The value was 0.

With “CCCCAAACATGGACCGGTTTTCCCGGTAATCCGTATTTGTA (site CCCCAAACTTA)” as the sequence, how does the “recombinant UMI read abundance (log10)” value read?
The value was 0.19.

With “CCCCAAACATGGACCGGTTTTCCCGGTAATCCGTATTTGTA (site CCCCACACTTA)” as the sequence, how does the “recombinant UMI read abundance (log10)” value read?
The value was 0.0105.

For “CCCCAAACATGGACCGGTTTTCCCGGTAATCCGTATTTGTA (site CCCCAGACTTA)”, which “recombinant UMI read abundance (log10)” value is on record?
The value was 0.00667.

For “CCCCAAACATGGACCGGTTTTCCCGGTAATCCGTATTTGTA (site CCCCATACTTA)”, which “recombinant UMI read abundance (log10)” value is on record?
The value was 0.102.
